The experiment has as its target T1, Menin (Homo sapiens, UniProt O00255).
T1 sequence (O00255 whole entry): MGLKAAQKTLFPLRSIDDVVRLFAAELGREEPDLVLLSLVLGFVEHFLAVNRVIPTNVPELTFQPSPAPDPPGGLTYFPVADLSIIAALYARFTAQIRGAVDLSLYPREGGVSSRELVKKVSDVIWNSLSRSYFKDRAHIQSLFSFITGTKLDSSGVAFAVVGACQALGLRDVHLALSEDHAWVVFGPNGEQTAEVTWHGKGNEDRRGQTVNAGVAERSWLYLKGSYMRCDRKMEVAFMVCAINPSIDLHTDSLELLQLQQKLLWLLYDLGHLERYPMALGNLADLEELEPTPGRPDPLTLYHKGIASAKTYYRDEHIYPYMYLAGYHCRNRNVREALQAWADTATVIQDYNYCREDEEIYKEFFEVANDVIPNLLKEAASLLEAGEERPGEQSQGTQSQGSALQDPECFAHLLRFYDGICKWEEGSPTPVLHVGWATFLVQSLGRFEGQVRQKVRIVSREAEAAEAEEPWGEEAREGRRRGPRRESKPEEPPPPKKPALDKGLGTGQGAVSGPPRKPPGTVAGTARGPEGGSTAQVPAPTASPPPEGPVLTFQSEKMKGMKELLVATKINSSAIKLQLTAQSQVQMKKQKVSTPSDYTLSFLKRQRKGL
Nature of the experiment: Menin-MLL Interaction Inhibitory Activity Assay. On the procedure:
The inhibition of Menin/MLL-4-43 peptide interaction by small molecule inhibitors was quantitatively detected by fluorescence polarization competition assay. The experiment was performed in a 384-well plate (Corning, Cat #3575) using a reaction buffer consisting of 50 mM Tris, pH 7.5, 50 mM NaCl, and 1 mM DTT. A 40 μL reaction system included 10 μL of 8 nM Menin recombinant protein and 10 μL of the test compound at different concentrations. The compound was pre-incubated with Menin protein for 15 min, and then 20 μL of 10 nM FITC-MLL4-43-peptide was added. After incubation on a shaker at 25° C. for 60 min, the fluorescence polarization signal (FP 485 520 520) was read using BMG PHERAStar detection. The experimental data was analyzed and processed by GraphPad Prism 6 software to obtain the IC50 value.

For `CCN(C(=O)c1cc(F)ccc1Oc1cncnc1N1CC2(CCN(C[C@H]3CC[C@@]4(CCC(=O)N4)CC3)CC2)C1)C(C)C` [US20250074910, Example 1], it took 36.3 nM to reach half-maximal inhibition (IC50).
For `CC(C)N(C(=O)c1cc(F)ccc1Oc1nncnc1N1CC2(CCN(C[C@H]3CC[C@]4(CC3)CC(CO)(CO)C(=O)N4)CC2)C1)C(C)C` [US20250074910, Example 63] the value was 8.3 nM.
